Data on six compounds can be found in patent US8957016B2, “Tumor activated prodrugs” (Genspera, Inc., priority 2006, dated 2015).

Like-named read-outs stand apart in the source and are kept apart here. *1 amine or outer side, *2 acyl side, *3 side chain or, on linkers, in order; H or OH if unused. Where a SMILES comes first, the peptide text is derived from it. [ ]: non-standard residue; d: D form. The star is where a group is joined. AMC = Cc1cc(=O)oc2cc(N*)ccc12; Morpholide = C1CN(*)CCO1; CO = O=C([*:1])[*:2] Bounds are passed on as bounds.

In one test the target is PSA (Homo sapiens, UniProt P07288). In words: Kinetic parameters of fluorescent (AMC) PSA peptide substrates, Lineweaver Burke plots. It counts as biochemical. The following applies: PSA 10 μg/ml, AMC-coupled peptide. As to the method:
These peptides were then incubated with PSA (10 μg/ml) and Michaelis Menton kinetic parameters determined using Lineweaver Burke plots, Table 3. In this study, Kcat/Km ratios were calculated in order to rank peptides. Newly synthesized peptides contained an acetyl protecting group (Ac) at the amino terminus, whereas the test peptide contained the protecting group morpholinylcarbonyl (Mu).

Test [1] has as its target sarcoplasmic reticulum (SR) and endoplasmic reticulum (ER) Ca2+-ATPase (SERCA) pump. The following applies: read-out: apparent dissociation constant; cited from earlier work.

PSA, sequence (P07288 25-261): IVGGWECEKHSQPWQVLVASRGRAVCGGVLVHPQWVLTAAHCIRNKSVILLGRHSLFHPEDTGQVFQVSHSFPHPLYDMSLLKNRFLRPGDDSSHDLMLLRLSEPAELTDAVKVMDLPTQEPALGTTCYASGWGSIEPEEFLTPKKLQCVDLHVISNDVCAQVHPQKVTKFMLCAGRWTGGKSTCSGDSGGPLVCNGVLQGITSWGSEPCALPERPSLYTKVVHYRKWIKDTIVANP

With `CC(=O)NCC(=O)N[C@@H](CO)C(=O)N[C@@H](CO)C(=O)N[C@@H](CCCCN)C(=O)N[C@@H](Cc1ccccc1)C(=O)N[C@@H](CCC(N)=O)C(=O)Nc1ccc2c(C)cc(=O)oc2c1` [Ac-GSSKFQ-AMC] (Ac-GSSKFQ-{AMC}), at PSA, the Km (in general, the concentration of substrate that gives half-maximal velocity) stood at 666 µM and the turnover number (kcat) (in general, the maximal rate divided by the concentration of active sites) was 0.057 s⁻¹.

`CC(=O)NCC(=O)N[C@H](CO)C(=O)N[C@@H](C)C(=O)N[C@@H](CCCCN)C(=O)N[C@@H](Cc1ccc(O)cc1)C(=O)N[C@@H](CCC(N)=O)C(=O)Nc1ccc2c(C)cc(=O)oc2c1` [Ac-GsAKYQ-AMC] (Ac-G[dS]AKYQ-{AMC}): at PSA, the Km was 653 µM and the kcat amounted to 0.143 s⁻¹.

As to `CC(=O)NCC(=O)N[C@@H](CCCCN)C(=O)N[C@@H](CO)C(=O)N[C@@H](CCC(N)=O)C(=O)N[C@@H](Cc1ccc(O)cc1)C(=O)N[C@@H](CCC(N)=O)C(=O)Nc1ccc2c(C)cc(=O)oc2c1` [Ac-GKSQYQ-AMC] (Ac-GKSQYQ-{AMC}), on PSA, the catalytic constant (kcat) was found to be 0.09 s⁻¹. Further, the Michaelis constant (Km) on PSA (read-out: Km) turned out to be 343 µM.

On to `CC(=O)NCC(=O)N[C@@H](CO)C(=O)N[C@@H](CO)C(=O)N[C@@H](CCCCN)C(=O)N[C@@H](Cc1ccc(O)cc1)C(=O)N[C@@H](CCC(N)=O)C(=O)Nc1ccc2c(C)cc(=O)oc2c1` [Ac-GSSKYQ-AMC] (Ac-GSSKYQ-{AMC}), for which, at PSA, the Km is 500 µM and the kcat was determined as 0.113 s⁻¹.

On to `Cc1cc(=O)oc2cc(NC(=O)[C@H](CCC(N)=O)NC(=O)[C@H](CC(C)C)NC(=O)[C@H](CCCCN)NC(=O)[C@H](CO)NC(=O)[C@H](CO)NC(=O)[C@H](Cc3c[nH]cn3)NC(=O)N3CCOCC3)ccc12` [Mu-HSSKLQ-AMC, reference compound] ({Morpholide-CO}-HSSKLQ-{AMC}), for which the kcat at PSA turned out to be 0.011 s⁻¹.

As to `C/C=C(/C)C(=O)O[C@H]1C(C)=C2[C@H]([C@@H]1OC(=O)CCCCCCC)[C@@](C)(OC(C)=O)C[C@H](OC(=O)CCC)[C@@]1(O)[C@H]2OC(=O)[C@@]1(C)O` [Thapsigargin], the Kd in test [1] was ≤ 2.2 pM.
